Source: patent publication US20190105367A1, “ANTIMICROBIAL 4-OXOQUINOLIZINES” (Emergent Product Development Gaithersburg Inc., priority 2011, published 2019)
Converted amounts (≈) assume the structure as drawn. Read-outs that look alike come from different tables or passages of the source.

Experiments:
E. cloacae 13047 = assay: MIC, standard panel of Gram-positive and Gram-negative strains (Example 2); format: cell-based, Enterobacter cloacae; settings: Enterobacter cloacae, 13047; read-out: MIC E. cloacae 13047
A. baumannii A387 = assay: Preliminary MBC without and with sub-inhibitory polymyxin B (Example 4); format: cell-based, Acinetobacter baumannii; settings: Acinetobacter baumannii
S. aureus 101 = assay: MIC, standard panel of Gram-positive and Gram-negative strains (Example 2); format: cell-based; settings: Staphylococcus aureus
A. baumanii 19606 = assay: as above; format: cell-based; settings: Acinetobacter baumannii
Cytotoxicity (Example 7) = format: cell-based; settings: human, HEPG2 V1 cells
Method: The 4-oxoquinolizine compounds of the invention preferably have a low cytotoxicity against human cells. […].
Cytotoxicity was determined for the instant 4-oxoquinolizine compounds which show low cytotoxicity. (see Table 17 following). […]

S. epidermis 12228 = assay: MIC, standard panel of Gram-positive and Gram-negative strains (Example 2); format: cell-based, Staphylococcus epidermis; settings: Staphylococcus
E. faecium 19434 = assay: as above; format: cell-based; settings: Enterococcus faecium
S. aureus SMITH = assay: MIC, panel of quinolone-resistant strains (Example 2); format: cell-based; settings: Staphylococcus aureus; CIP R; read-out: MIC S. aureus SMITH
A. baumannii A401 [1] = assay: Preliminary MBC without and with sub-inhibitory polymyxin B (Example 4); format: cell-based, Acinetobacter baumannii; settings: Acinetobacter baumannii
E. faecalis 29212 = assay: MIC, standard panel of Gram-positive and Gram-negative strains (Example 2); format: cell-based, Enterococcus faecalis; settings: Enterococcus faecalis, 29212; read-out: MIC E. faecalis 29212
A. baumannii A472 = assay: MIC without and with sub-inhibitory polymyxin B (Example 4); format: cell-based, Acinetobacter baumannii; settings: for MIC without PB/MIC + PB: A. baumannii A472, ratio; for MIC: Acinetobacter baumannii
A. baumannii A401 [2] = assay: as above; format: cell-based, Acinetobacter baumannii; settings: for MIC without PB/MIC + PB: A baumannii A 401, ratio, PB 0.06 μg/ml; for MIC: Acinetobacter baumannii
[3] = tested on: strains of A. baumannii and one strain of Acinetobacter sp.; assay: MIC without polymyxin B, panel of Acinetobacter strains (Example 4); format: cell-based; settings: Acinetobacter baumannii, ATCC19606, read-out: MIC range without PB Oct. 1, 2006 n = 8, 1st experiment; resistant strains, ATCC 19606, A329, A390 and A473 not taken
S. aureus 25923 HS = assay: MIC, standard panel of Gram-positive and Gram-negative strains (Example 2); format: cell-based; settings: Staphylococcus aureus, read-out: MIC S. aureus 25923 HS
[4] = A387, A. baumannii A387, +0.06 μg/ml PB, 2nd experiment, read-out: MBC
[5] = A387, read-out: MBC +0.06 μg/ml PB, A. baumannii A387, +0.06 μg/ml polymyxin B, 1st experiment
[6] = A401, A baumannii A 401, +0.06 μg/ml PB, 2nd experiment, read-out: MBC
[7] = A401, read-out: MBC +0.06 μg/ml PB, A baumannii A 401, +0.06 μg/ml polymyxin B, 1st experiment
[8] = A472, A. baumannii A472, +[…] PB, 2nd experiment, read-out: MIC
[9] = A472, read-out: MIC +[…] PB, A. baumannii A472, +[…] polymyxin B, 1st experiment
[10] = A401, A baumannii A 401, +0.06 μg/ml PB, 2nd experiment, read-out: MIC
[11] = A401, read-out: MIC +0.06 μg/ml PB, A baumannii A 401, +0.06 μg/ml polymyxin B, 1st experiment

SMILES | MIC (E. cloacae 13047) | MBC (A. baumannii A387; [4]) | MBC (A. baumannii A387; [5]) | MIC (S. aureus 101) | MIC (A. baumanii 19606) | IC50 (Cytotoxicity (Example 7)) | MIC (S. epidermis 12228) | MIC (E. faecium 19434) | MIC (S. aureus SMITH) | MBC (A. baumannii A401 [1]; [6]) | MBC (A. baumannii A401 [1]; [7]) | MIC (E. faecalis 29212) | MIC without PB/MIC + PB (A. baumannii A472; 1st experiment) | MIC (A. baumannii A472; [8]) | MIC (A. baumannii A472; [9]) | MIC without PB/MIC + PB (A. baumannii A401 [2]; 1st experiment) | MIC (A. baumannii A401 [2]; [10]) | MIC (A. baumannii A401 [2]; [11]) | MIC [3] | MIC (S. aureus 25923 HS)
Cc1c(-c2cc(Cl)c(N)c(Cl)c2)ccn2c(=O)c(C(=O)O)cc(C3CC3)c12 [Compound 3, 8-(3,5-dichloro-4-amino-phenyl)-1-cyclopropyl-9-methyl-4-oxo-quinolizine-3-carboxylic acid] | 0.5 µg/mL (≈ 1.24 µM) | ≤ 0.03 µg/mL | 0.25 µg/mL | 0.06 µg/mL (≈ 0.149 µM) | 0.25 µg/mL (≈ 0.62 µM) | 50 µM | 0.008 µg/mL (≈ 0.0198 µM) | 0.5 µg/mL (≈ 1.24 µM) | 0.5 µg/mL (≈ 1.24 µM) | 0.125 µg/mL (≈ 0.31 µM) | 0.125 µg/mL | 0.016 µg/mL (≈ 0.0397 µM) | 64 | ≤ 0.03 µg/mL | 0.5 µg/mL (≈ 1.24 µM) | 64 | 0.125 µg/mL (≈ 0.31 µM) | 0.125 µg/mL | – | –
Cc1c(-c2ccc(N)cc2)ccn2c(=O)c(C(=O)O)cc(C3CC3)c12 [Compound 8, 8-(4-amino-phenyl)-1-cyclopropyl-9-methyl-4-oxo-quinolizine-3-carboxylic acid] | 0.25 µg/mL (≈ 0.748 µM) | 0.25 µg/mL (≈ 0.748 µM) | ≤ 0.03 µg/mL | 0.5 µg/mL (≈ 1.5 µM) | 0.125 µg/mL (≈ 0.374 µM) | 90 µM | – | 0.5 µg/mL (≈ 1.5 µM) | – | 0.25 µg/mL (≈ 0.748 µM) | ≤ 0.03 µg/mL | 0.03 µg/mL (≈ 0.0897 µM) | ≥128 | 0.06 µg/mL (≈ 0.179 µM) | ≤ 0.03 µg/mL | ≥1024 | 0.25 µg/mL (≈ 0.748 µM) | ≤ 0.03 µg/mL | 2 to 32 µg/mL (≈ 5.98 to 95.7 µM) | 0.25 µg/mL (≈ 0.748 µM)
